Laboratory results from patent US12144864B2, “Tubulysins and protein-tubulysin conjugates” (Regeneron Pharmaceuticals, Inc., priority 2018, dated 2024).
Where two headings read alike, the source gives them in different places.

Experiments:
HL60/MX2 cells = test: Cytotoxicity in panel of MDR cell lines, HL60/MX2 (72 h and 144 h); type: cell-based, human; settings: for IC50: Homo sapiens
Method: (§1) To test the ability of the disclosed tubulysin payloads to kill human cell lines, an in vitro cytotoxicity assay was performed. In vitro cytotoxicity of the disclosed payloads, as well as reference compounds, were evaluated using the CellTiter-Glo Assay Kit (Promega, Cat #G7573), in which the quantity of ATP present is used to determine the number of viable cells in culture. For the assay, C4-2, HEK293, or T47D cells were seeded at 4000 cells/well on Nunclon white 96-well plates in complete growth medium (DME high glucose:Ham's F12 at 4:1, 10% FBS, 100 units/ml Penicillin, 100 ug/ml streptomycin, 53 ug/ml glutatmine, 10 ug/ml insulin, 220 ng/ml biotin, 12.5 pg/ml T3, 12.5 ug/ml Adenine, 4 ug/ml transferrin for C42 cells; DME high glucose, 10% FBS, 100 units/ml Penicillin, 100 ug/ml streptomycin, 53 ug/ml glutatmine for HEK293; RPMI, 10% FBS, 100 units/ml Penicillin, 100 ug/ml streptomycin, 53 ug/ml glutatmine, 10 ug/ml insulin, 10 mM HEPEs, 200 nM Sodium Pyruvate for T47D cells) and grown overnight at 37° C. in 5% CO2. For cell viability curves, 1:3 serially diluted payloads were added to the cells at final concentrations ranging from 100 nM to […], including a no treatment control group, and were then incubated for 5 days. After the 5-day incubation, cells were incubated at room temperature with 100 μL of CellTiter-Glo reagents for 10 minutes. Relative luminescence units (RLU) were determined on a Victor plate reader (PerkinElmer). The IC50 values were determined from a four-parameter logistic equation over a 10-point response curve (GraphPad Prism). All IC50 values are expressed in molar (M) concentration. The percent cell killing (% kill) at the maximum concentration tested was estimated from the following formula (100−% viable cells). Averages±standard deviation (SD) are included where replicate experiments were performed.
(§2) To further test the ability of the disclosed tubulysin payloads, a cytotoxicity assay was performed using a panel of multidrug resistant (MDR) cell lines. In vitro cytotoxicity of the disclosed payloads as well as reference compounds were similarly evaluated as described above except using HCT-15 cells, a colorectal carcinoma cell line; H69AR, a doxorubicin resistant MDR derivative of the small cell lung cancer carcinoma cell line NCI-H69; MES-SA/MX2, a mitoxantrone resistant MDR derivative of the uterine sarcoma cell line MES-SA; and HL60/MX2, a mitoxantrone resistant MDR derivative of the acute promyelocytic leukemia cell line HL60. In these assays, cytotoxicity was evaluated in normal growth media (RPMI, 10% FBS, 100 units/ml Penicillin, 100 ug/ml streptomycin, and 53 ug/ml glutatmine for HCT-15 and HL60/MX2; RPMI, 20% FBS, 100 units/ml Penicillin, 100 ug/ml streptomycin, and 53 ug/ml glutatmine for H69-AR; Waymouths's:McCoy's (1:1), 10% FBS, 100 units/ml Penicillin, 100 ug/ml streptomycin, and 53 ug/ml glutatmine for MES-SA/MX2) with 1000 cells per well following 72 h and 144 h incubation with payloads.

HCT-15 cells = test: Cytotoxicity in panel of MDR cell lines, HCT-15 (72 h and 144 h); type: cell-based, human; settings: for IC50: Homo sapiens
Summary of the method: (§3)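 Cells were seeded at 1000 per well and grown overnight, then exposed to 1:3 serially diluted payloads for 72 h and 144 h. CellTiter-Glo reagent was added for 10 min at room temperature, and luminescence was read. IC50 values came from a four-parameter logistic fit.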

C4-2 cells = test: Cell-based killing assay of payloads (CellTiter-Glo), C4-2 cells; design: species or system human; settings: 5-day incubation; for IC50: Homo sapiens, C4-2, 120 h, average ± SD where replicates; for C4-2 % Kill: at maximum concentration tested (100 − % viable cells)
Summary of the method: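 Cells plated at 4000/well in line-specific complete medium, grown overnight, then exposed to 1:3 serial dilutions of payload (100 nM to […]) for 5 days. ATP-based CellTiter-Glo luminescence read; IC50 from four-parameter logistic 10-point fit, and % kill at top concentration as 100 − % viable.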

MES-SA/MX2 cells = test: Cytotoxicity in panel of MDR cell lines, MES-SA/MX2 (72 h and 144 h); type: cell-based, human; settings: for IC50: Homo sapiens
Method: as §1, §2

HCT15 cells = test: cells; type: cell-based, human; settings: HCT15 cells; for HCT-15 + verapamil % Kill / HCT-15 % Kill: maximum % cell killing
Summary of the method: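 HCT15 colorectal carcinoma cells, 1000 per well in RPMI/10% FBS, with or without 5 ug/mL verapamil, exposed to 1:3 serially diluted payloads for 5 days at 37 °C. Viability measured by CellTiter-Glo ATP luminescence; IC50 from four-parameter logistic fit of a 10-point curve, % kill at top concentration.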

H69AR cells = test: Cytotoxicity in panel of MDR cell lines, H69AR (72 h and 144 h); type: cell-based, human; settings: for IC50: Homo sapiens
Summary of the method: as §3

[1] = 72 h incubation, read-out: HL60/MX2 IC50 72 h
[2] = 144 h incubation, read-out: HL60/MX2 IC50 144 h
[3] = 72 h incubation, read-out: HCT-15 IC50 72 h
[4] = 144 h incubation, read-out: HCT-15 IC50 144 h
[5] = 72 h incubation, read-out: MES-SA/MX2 IC50 72 h
[6] = 144 h incubation, read-out: MES-SA/MX2 IC50 144 h
[7] = with 5 ug/mL Verapamil, read-out: HCT-15 + verapamil IC50
[8] = Homo sapiens, HCT-15, without Verapamil, read-out: HCT-15 IC50
[9] = 72 h incubation, read-out: H69AR IC50 72 h
[10] = 144 h incubation, read-out: H69AR IC50 144 h

Row | SMILES | HL60/MX2 % Kill 72 h (HL60/MX2 cells; 72 h incubation) | HL60/MX2 % Kill 144 h (HL60/MX2 cells; 144 h incubation) | IC50 (HL60/MX2 cells; [1]) | IC50 (HL60/MX2 cells; [2]) | HCT-15 % Kill 72 h (HCT-15 cells; 72 h incubation) | HCT-15 % Kill 144 h (HCT-15 cells; 144 h incubation) | IC50 (HCT-15 cells; [3]) | IC50 (HCT-15 cells; [4]) | IC50 (C4-2 cells) | C4-2 % Kill (C4-2 cells) | MES-SA/MX2 % Kill 72 h (MES-SA/MX2 cells; 72 h incubation) | MES-SA/MX2 % Kill 144 h (MES-SA/MX2 cells; 144 h incubation) | IC50 (MES-SA/MX2 cells; [5]) | IC50 (MES-SA/MX2 cells; [6]) | HCT-15 + verapamil % Kill (HCT15 cells; with 5 ug/mL Verapamil) | IC50 (HCT15 cells; [7]) | HCT-15 % Kill (HCT15 cells; without Verapamil) | IC50 (HCT15 cells; [8]) | H69AR % Kill 72 h (H69AR cells; 72 h incubation) | H69AR % Kill 144 h (H69AR cells; 144 h incubation) | other results
1 | CC[C@H](C)[C@H](NC(=O)[C@H]1CCCCN1C)C(=O)N(CCCCc1cn(-c2ccccc2)nn1)[C@H](C[C@@H](OC(C)=O)c1nc(C(=O)N[C@@H](Cc2ccc(N)cc2)CC(C)(C)C(=O)O)cs1)C(C)C [IVp, (S)-4-(2-((1R,3R)-1-acetoxy-4-methyl-3-((2S,3S)-3-methyl-2-((R)-1-methylpiperidine-2-carboxamido)-N-(4-(1-phenyl-1H-1,2,3-triazol-4-yl)butyl)pentanamido)pentyl)thiazole-4-carboxamido)-5-(4-aminophenyl)-2,2-dimethylpentanoic acid] | 97.5% | 99.9% | 0.0237 nM | < 0.015 nM | 97.6% | 99.7% | 0.181 nM | 0.231 nM | 0.177 nM | 94.2% | 98.8% | 99.9% | 0.792 nM | 1.66 nM | 97.6% | 0.0864 nM | 98.7% | 0.239 nM | 96.3% | 99.2% | IC50 (H69AR cells; [9]): 0.644 nM; IC50 (H69AR cells; [10]): 1.12 nM
2 | [2H]c1cc(C[C@@H](CC(C)(C)C(=O)O)NC(=O)c2csc([C@@H](C[C@H](C(C)C)N(CCCCCC)C(=O)[C@@H](NC(=O)[C@H]3CCCCN3C)[C@@H](C)CC)OC(C)=O)n2)cc([2H])c1N [IVs, (S)-4-(2-((1R,3R)-1-Acetoxy-3-((2S,3S)—N-hexyl-3-methyl-2-((R)-1-methylpiperidine-2-carboxamido)pentanamido)-4-methylpentyl)thiazole-4-carboxamido)-5-(4-aminophenyl-3,5-d2)-2,2-dimethylpentanoic acid] | 98.4% | 100% | < 0.015 nM | < 0.015 nM | 97.6% | 99.7% | 0.0371 nM | 0.0501 nM | 0.0499 nM | 93.8% | 99.2% | 100% | 0.102 nM | 0.21 nM | 98.8% | 0.0459 nM | 99.1% | 0.108 nM | 96.8% | 99.4% | IC50 (H69AR cells; [9]): 0.161 nM; IC50 (H69AR cells; [10]): 0.281 nM
3 | CCCCCCN(C(=O)[C@@H](NC(=O)[C@H]1CCCCN1C)[C@@H](C)CC)[C@H](C[C@@H](OC(C)=O)c1nc(C(=O)N[C@@H](Cc2ccc(N)c(F)c2)CC(C)(C)C(=O)O)cs1)C(C)C [IVvB, 4-({2-[(1R,3R)-1-(Acetyloxy)-3-[(2S,3S)—N-hexyl-3-methyl-2-{[(2R)-1-methylpiperidin-2-yl]formamido}pentanamido]-4-methylpentyl]-1,3-thiazol-4-yl}formamido)-5-(4-amino-3-fluorophenyl)-2,2-dimethylpentanoic acid] | 98.2% | 99.8% | < 0.015 nM | < 0.015 nM | 97.7% | 99.6% | < 0.015 nM | 0.0228 nM | 0.0215 nM | 94.6% | 99.1% | 99.9% | 0.0456 nM | 0.0658 nM | 97.7% | 0.015 nM | 97.3% | 0.025 nM | 96.9% | 99.1% | IC50 (H69AR cells; [9]): 0.0599 nM; IC50 (H69AR cells; [10]): 0.158 nM
4 | CCCCCON(C(=O)[C@@H](NC(=O)[C@H]1CCCCN1C)[C@@H](C)CC)[C@H](C[C@@H](OC(=O)NC)c1nc(C(=O)N[C@@H](Cc2ccc(N)cc2)CC(C)(C)C(=O)O)cs1)C(C)C [VIh, (S)-5-(4-Aminophenyl)-4-(2-((5R,7R)-7-isopropyl-8-((2S,3S)-3-methyl-2-((R)-1-methylpiperidine-2-carboxamido)pentanoyl)-3-oxo-4,9-dioxa-2,8-diazatetradecan-5-yl)thiazole-4-carboxamido)-2,2-dimethylpentanoic acid] | 97.6% | 99.9% | 0.0391 nM | < 0.015 nM | 97.9% | 99.7% | 0.366 nM | 0.515 nM | 0.159 nM | 93.9% | 98.5% | 99.8% | 1.26 nM | 2.72 nM | 97.8% | 0.0716 nM | 99% | 0.263 nM | 96.3% | 99.1% | IC50 (H69AR cells; [9]): 1.07 nM; IC50 (H69AR cells; [10]): 1.73 nM
